Measurements: publication PMC5021139 (Journal of Neuroendocrinology, 2016)
One block for each molecule: values may come before it. *1 amine or outer side, *2 acyl side, *3 side chain or, on linkers, in order; H or OH if unused. Where a SMILES comes first, the peptide text is derived from it. Bridges are numbered along the chain shown (N, C = ends). Where no end group is shown, it is not given here. X1 = O=C(CCC[*:2])[*:1]

Legend:
[1] = target: T1, human oxytocin receptor (hOXTR) (Homo sapiens, UniProt P30559)
[2] = system: somatostatin receptor (SST2R); parameters: method as in PMID 25012983; settings: functioning gastroenteropancreatic neuroendocrine tumours; cited from earlier work
[3] = system: human vasopressin V1b receptor (V1bR); experiment: BRET2 G-protein activation at V1bR in HEK293 cells; settings: 10 μM ligand, 2 min, Gq, Gi1, Gi2, Gi3, Go, minimum of three experiments
[4] = system: human vasopressin V1a receptor (V1aR); experiment: BRET2 G-protein activation at V1aR in HEK293 cells; format: cell-based; settings: 10 μM ligand, 2 min, Gq, Gi1, Gi2, Gi3, Go, minimum of three experiments
From the text: (A) V1aR or (B) V1bR were transfected together with GFP10‐Gγ2, Gβ1 and different Rluc8‐tagged Gα subunits: Gq, Gi1, Gi2, Gi3, Go.

[5] = cited from earlier work
[6] = parameters: method as in PMID 6831225; settings: cited from earlier work
[7] = parameters: method as in PMID 6831225; settings: parenteral administration; cited from earlier work
OXTR = settings: cited from earlier work
[8] = target: T1, human oxytocin receptor (hOXTR); experiment: cell-based; settings: HEK293, read-out: maximal activation (BRETmax) relative to oxytocin
[9] = system: aminopeptidase and disulphidase; settings: cited from earlier work
[10] = target: T1, human oxytocin receptor (hOXTR); settings: carbetocin vs oxytocin
[11] = target: T2, human oxytocin receptor fused to Renilla luciferase (hOXTR‐Rluc) (human, UniProt P30559 1-389); experiment: FRET or BRET; kinetic BRET1 in HEK293 cells co-transfected with hOXTR-Rluc (donor) and β-arrestin1- or β-arrestin2-Venus (acceptor); cells in PBS with 0.1% glucose at room temperature; coelenterazine h added 8 min before oxytocin (10 μM); read in real time for 5 min; settings: partners not purified
T2 construct: oxytocin receptor, human; Rluc introduced at the C-terminus; source: HEK293, transfected (PEI), in living cells; not shown: Rluc (Renilla luciferase), C-terminal, kept
T2 sequence (looked up): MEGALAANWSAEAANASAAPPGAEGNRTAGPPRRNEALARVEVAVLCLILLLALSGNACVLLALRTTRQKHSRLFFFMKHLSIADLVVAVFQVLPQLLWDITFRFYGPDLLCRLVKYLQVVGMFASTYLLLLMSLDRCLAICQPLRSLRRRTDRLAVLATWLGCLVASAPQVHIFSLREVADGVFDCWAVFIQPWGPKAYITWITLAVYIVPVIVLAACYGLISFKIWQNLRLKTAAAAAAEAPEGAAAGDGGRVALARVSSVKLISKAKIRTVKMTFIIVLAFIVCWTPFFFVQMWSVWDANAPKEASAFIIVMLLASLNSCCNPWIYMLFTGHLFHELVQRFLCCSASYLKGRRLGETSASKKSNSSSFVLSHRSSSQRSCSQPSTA

EC50 of Gq activation (BRET2 between Gαq-Rluc8 and GFP10-Gγ2) in HEK293 cells expressing hOXTR, 10^-13 to 10^-5 M, 2 min [1]: 0.0488 µM
maximal activation (BRETmax) of the Gq biosensor in HEK293 cells expressing hOXTR, against that of oxytocin (% of oxytocin) [1]: 45
Molecule: carbetocin (deamino‐1‐monocarba‐(2‐O‐methyltyrosine)‐oxytocin) (peptide)

Molecule: octreotide
antisecretory potency on long-term treatment [2]: antisecretory potency decreased with long‐term treatment as a consequence of the persistent internalisation of SST2R

Molecule: arginine vasopressin: neuropeptide arginine vasopressin, obtained from Bachem (CYFQNCPRG; not fully specified (C-terminus, bridges); cysteine pairing not given here; UniProt P01185 20-28, looked up)
V1bR activation, all G-proteins tested [3]: significantly promoted the coupling/activation
V1aR activation, all G-proteins tested [4]: significantly promoted the coupling/activation

Molecule: CC[C@H](C)[C@@H]1NC(=O)[C@H](Cc2ccc(O)cc2)NC(=O)[C@@H](N)CSSC[C@@H](C(=O)N2CCC[C@H]2C(=O)N[C@@H](CC(C)C)C(=O)NCC(N)=O)NC(=O)[C@H](CC(N)=O)NC(=O)[C@H](CCC(N)=O)NC1=O [oxytocin]
half-life in the peripheral circulation [5]: 3.4 min
half-life in the plasma [5]: short half‐life in the plasma
half-life in the cerebrospinal fluid [6]: short half‐life
blood-brain barrier crossing [7]: does not cross the blood–brain barrier in a significant amount

Molecule: atosiban
G-protein functional selectivity (OXTR): a Gi3 functional selective agonists

Molecule: CC[C@H](C)[C@@H]1NC(=O)[C@H](Cc2ccc(OC)cc2)NC(=O)CCCSC[C@@H](C(=O)N2CCC[C@H]2C(=O)N[C@@H](CC(C)C)C(=O)NCC(N)=O)NC(=O)[C@H](CC(N)=O)NC(=O)[C@H](CCC(N)=O)NC1=O [carbetocin, deamino‐1‐monocarba‐(2‐O‐methyltyrosine)‐oxytocin] (Y(Me)IQNCPLG-NH2; linker N-5 via X1)
Emax [8]: 45 ± 6%
half-life in the peripheral circulation [5]: 85 to 100 min
protection from aminopeptidase degradation and disulphidase cleavage [9]: very effective protection of carbetocin from aminopeptidase degradation and disulphidase cleavage
reduction in maximal OXTR/Gq activation compared to oxytocin [10]: 50%

t1/2 of the oxytocin-induced increase of the BRET ratio [11]: 1.98 min
B1: β‐arrestin1‐Venus (natural protein, UniProt P49407 1-418, looked up)
chain: MGDKGTRVFKKASPNGKLTVYLGKRDFVDHIDLVDPVDGVVLVDPEYLKERRVYVTLTCAFRYGREDLDVLGLTFRKDLFVANVQSFPPAPEDKKPLTRLQERLIKKLGEHAYPFTFEIPPNLPCSVTLQPGPEDTGKACGVDYEVKAFCAENLEEKIHKRNSVRLVIRKVQYAPERPGPQPTAETTRQFLMSDKPLHLEASLDKEIYYHGEPISVNVHVTNNTNKTVKKIKISVRQYADICLFNTAQYKCPVAMEEADDTVAPSSTFCKVYTLTPFLANNREKRGLALDGKLKHEDTNLASSTLLREGANREILGIIVSYKVKVKLVVSRGGLLGDLASSDVAVELPFTLMHPKPKEEPPHREVPENETPVDTNLIELDTNDDDIVFEDFARQRLKGMKDDKEEEEDGTGSPQLNNR
notes: β-arrestin1; Venus (yellow variant of GFP) fused to its C-terminus; vector provided by Professor M. Locati; source: HEK293, transfected (PEI), in living cells; not shown: Venus, C-terminal, kept
